Results published in publication PMC11640942, “The Role of Medium Polarity in the Efficiency of Albumin Binding with Hydrophobic Ligands: Experimental Studies and a Molecular Dynamics Investigation” (International Journal of Molecular Sciences, 2024).
Converted amounts (≈) assume the structure as drawn. Read-outs that look alike come from different tables or passages of the source. Blank lines part the entries; values can stand above or below the compound they belong to.

How the values were obtained:
[1] = target: T1, human serum albumin (HSA) (Homo sapiens, UniProt P02768); assay: Binding constants of DPH and OG with HSA by increase in the probe's fluorescence (titration with HSA)
T1 construct: purchased Sigma-Aldrich Chemical Co. (St. Louis, MO, USA)
Protocol: The slit widths were set at 10 nm for both excitation and emission wavelengths, and a 3 mL quartz cuvette with a 10 mm path length and that was magnetically stirred was used during the measurements. The experiments were performed in pure water or solutions containing 1.0 mol L^−1 NaCl, 10 and 20% (w/w) of 1,4-dioxane. […] After each addition, the mixtures were incubated for 2 min before the fluorescence measurements. Equation (2) was applied to determine the binding constant. […] The association constant (Ka) was calculated as 1/Kd. The same experimental protocol was used to determine the binding constant with OG. In this case, the fixed amount of OG was 5.0 µmol L^−1 and HSA 0–25.0 µmol L^−1. The excitation was set at 305 nm, and the emission was 320 to 450 nm. The non-linear fitting was obtained using the GraphPad Prism version 8.00 for Windows (GraphPad Software, San Diego, CA, USA). (2) F−F0/F∞−F0=L+[P]+Kd−L+[P]+Kd)^2−4[L][P]/2[L]

[2] = target: T1, human serum albumin (HSA); assay: Time-resolved fluorescence (average lifetime) of DPH, free and complexed with HSA
Protocol: The measurements were performed using a mini-tau filter-based fluorescence lifetime spectrometer coupled to a Time-Correlated Single Photon Counting (TCSPC) system (Edinburgh Instruments, Livingston, UK). The excitation was performed using a 370 ± 10 nm picosecond pulsed laser, and the emission was using a […] interference filter. The fluorescence decays were fitted using the multi-exponential decay model, Equation (5), and the average lifetime <τ> was calculated using Equation (6). The quality of the fit was assessed by χ^2 values and residuals. […] (5) IT=∑i=1nfie^−T/τi (6) <τ>=∑i=1nfiτi

[3] = cited from earlier work
[4] = cited from earlier work; remark: listed apart in the source
[5] = target: T1, human serum albumin (HSA); assay: Binding of quercetin or rutin with HSA by quenching of the protein's intrinsic fluorescence; settings: pure water vs 20% 1,4-dioxane, fit to Equation (3)
Protocol: The interactions between HSA and quercetin or rutin were evaluated by quenching the intrinsic fluorescence of the protein. The excitation was set at 295 nm, and the emission at 310 to 410 nm. […] After each addition of the ligands, the mixtures were incubated for 2 min before the fluorescence measurements. […] Since a 1:1 complex was assumed, n was set as 1. Therefore, Kd and Φ were treated as the fitting parameters in the non-linear least-squares analysis. Before determining the binding constants, the fluorescent intensities were corrected for the inner filter effect (Equation (4)) caused by the attenuation of the excitation and emission signals provoked by the light absorption of the flavonoids. Fcorr and Fobs are the corrected and observed fluorescence. Abex and Abem are the absorptions of the mixture at excitation and emission wavelength, respectively. The absorbance spectra were measured using a Perkin Elmer Lambda 35 UV-visible spectrophotometer (Shelton, CT, USA), and the fluorescence spectra were obtained using a Perkin Elmer LS 55 spectrofluorometer (Shelton, CT, USA). (3) Fratio=1-Φ[([…])/2nP0] (4) Fcorr=Fobs×10^Abex+Abem/2

[6] = 1,4-dioxane 0% (pure water), 25 °C, fit to Equation (2), read-out: association constant Ka (converted)
[7] = 1,4-dioxane 20% w/w, 25 °C, fit to Equation (2), read-out: association constant Ka (converted)

T1 sequence (P02768 25-609): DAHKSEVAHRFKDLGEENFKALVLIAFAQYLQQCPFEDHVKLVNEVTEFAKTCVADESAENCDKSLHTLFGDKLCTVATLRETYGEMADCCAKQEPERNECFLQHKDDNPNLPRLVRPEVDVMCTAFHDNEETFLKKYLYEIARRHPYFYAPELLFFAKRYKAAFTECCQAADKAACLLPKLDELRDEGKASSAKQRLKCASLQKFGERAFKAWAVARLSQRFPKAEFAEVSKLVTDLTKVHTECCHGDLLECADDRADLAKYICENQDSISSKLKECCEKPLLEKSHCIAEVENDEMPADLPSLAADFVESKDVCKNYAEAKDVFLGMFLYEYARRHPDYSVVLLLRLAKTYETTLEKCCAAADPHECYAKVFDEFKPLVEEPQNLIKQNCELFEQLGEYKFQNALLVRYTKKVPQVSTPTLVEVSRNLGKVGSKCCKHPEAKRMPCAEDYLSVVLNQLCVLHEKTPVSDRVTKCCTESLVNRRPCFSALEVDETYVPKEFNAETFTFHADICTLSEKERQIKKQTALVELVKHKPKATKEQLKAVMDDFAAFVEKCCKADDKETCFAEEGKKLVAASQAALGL

Kd [1, 6]: 505 nM
Kd ([1]; 1,4-dioxane 10% w/w, 25 °C, fit to Equation (2), read-out: association constant Ka (converted)): 1890 nM
Kd [1, 7]: 5880 nM
HSA concentration needed to reach saturation ([1]; 1,4-dioxane (20%)): 10 µM
Kd ([1]; Figure 4, printed as (10%) 1,4-dioxane, read-out: Ka (means and SD of triplicates) (converted)): 2220 nM
Kd ([1]; Figure 4, printed as (20%) 1,4-dioxane, read-out: Ka (means and SD of triplicates) (converted)): 485 nM
Kd ([1]; NaCl 1.0 mol L^−1 (dielectric constant 69.3), read-out: binding constant Ka (converted)): 4350 nM
lower HSA concentration at saturation when the solvent was absent ([1]; no solvent vs 1,4-dioxane): 5 fold
HSA concentration needed to reach saturation ([1]; pure water): 2.0 µM
Kd ([1]; pure water (dielectric constant 80.3), NaCl comparison experiment, read-out: binding constant Ka (converted)): 1010 nM
average fluorescence lifetime ([2]; 20% 1,4-dioxane with HSA added): 7.1 nanoseconds
average fluorescence lifetime ([2]; 20% 1,4-dioxane, no protein): 2.6 nanoseconds
average fluorescence lifetime ([2]; pure 1,4-dioxane): 7.8 nanoseconds
Compound: C(=CC=Cc1ccccc1)C=Cc1ccccc1 [DPH, 1,6-diphenyl-1,3,5-hexatriene]

Compound: CCCCCCCCOC(=O)c1cc(O)c(O)c(O)c1 [OG, octyl gallate]
Kd [1, 6]: 192 nM
Kd [1, 7]: 4550 nM
increase of binding constant in pure water compared to 1,4-dioxane ([1]; pure water vs 20% 1,4-dioxane): 25 fold

Compound: O=c1c(O)c(-c2ccc(O)c(O)c2)oc2cc(O)cc(O)c12 [quercetin]
logP [3]: 0.35
water solubility [4]: 60 µg/mL (≈ 199 µM)
effect of 1,4-dioxane on binding strength [5]: decreased

Compound: C[C@@H]1O[C@@H](OC[C@H]2O[C@@H](Oc3c(-c4ccc(O)c(O)c4)oc4cc(O)cc(O)c4c3=O)[C@H](O)[C@@H](O)[C@@H]2O)[C@H](O)[C@H](O)[C@H]1O [rutin]
logP [3]: −2.28
effect of 1,4-dioxane on binding strength [5]: not
